Reference: US8153397B2 (priority 1993, dated 2012)
“Also recorded” adds a separate entry of the source.

Molecular target: BoNT/A LC (Clostridium botulinum, UniProt P0DPI0)
Type: biochemical

Sequence of BoNT/A LC (P0DPI0 3-448, added parts left off): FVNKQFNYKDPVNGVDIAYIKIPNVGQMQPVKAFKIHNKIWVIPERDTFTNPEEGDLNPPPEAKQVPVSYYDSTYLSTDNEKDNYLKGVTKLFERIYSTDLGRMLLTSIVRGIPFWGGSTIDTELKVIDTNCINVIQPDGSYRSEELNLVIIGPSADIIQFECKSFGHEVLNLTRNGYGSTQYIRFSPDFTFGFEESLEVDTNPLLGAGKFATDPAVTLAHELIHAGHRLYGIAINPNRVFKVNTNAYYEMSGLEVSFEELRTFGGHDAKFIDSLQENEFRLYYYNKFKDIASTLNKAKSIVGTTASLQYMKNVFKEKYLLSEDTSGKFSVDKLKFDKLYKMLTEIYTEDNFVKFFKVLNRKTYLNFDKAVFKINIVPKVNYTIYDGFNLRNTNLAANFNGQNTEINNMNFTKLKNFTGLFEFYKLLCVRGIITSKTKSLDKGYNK

| SMILES | effect on truncation and fragmentation of the LC |
| --- | --- |
| c1ccc(CN(CCN(Cc2ccccn2)Cc2ccccn2)Cc2ccccn2)nc1 [TPEN] | largely protected; also recorded: significantly reduced the rate of conversion of IA to IB |
| O=C(O)CN(CCN(CC(=O)O)CC(=O)O)CC(=O)O [EDTA] | failed to protect; also recorded: little effect on proteolysis |
